Calls of active or inactive are those of the source.
Tests used:
[1] = biological target: T1, DNA repair and recombination protein RAD54-like (Homo sapiens, UniProt Q92698); assay: inhibitors of human RAD54 branch migration, confirmation, biochemical, fluorescence, cherry-picked samples, dose series (AID 651657); assay type: functional
T1 sequence (Q92698 whole entry): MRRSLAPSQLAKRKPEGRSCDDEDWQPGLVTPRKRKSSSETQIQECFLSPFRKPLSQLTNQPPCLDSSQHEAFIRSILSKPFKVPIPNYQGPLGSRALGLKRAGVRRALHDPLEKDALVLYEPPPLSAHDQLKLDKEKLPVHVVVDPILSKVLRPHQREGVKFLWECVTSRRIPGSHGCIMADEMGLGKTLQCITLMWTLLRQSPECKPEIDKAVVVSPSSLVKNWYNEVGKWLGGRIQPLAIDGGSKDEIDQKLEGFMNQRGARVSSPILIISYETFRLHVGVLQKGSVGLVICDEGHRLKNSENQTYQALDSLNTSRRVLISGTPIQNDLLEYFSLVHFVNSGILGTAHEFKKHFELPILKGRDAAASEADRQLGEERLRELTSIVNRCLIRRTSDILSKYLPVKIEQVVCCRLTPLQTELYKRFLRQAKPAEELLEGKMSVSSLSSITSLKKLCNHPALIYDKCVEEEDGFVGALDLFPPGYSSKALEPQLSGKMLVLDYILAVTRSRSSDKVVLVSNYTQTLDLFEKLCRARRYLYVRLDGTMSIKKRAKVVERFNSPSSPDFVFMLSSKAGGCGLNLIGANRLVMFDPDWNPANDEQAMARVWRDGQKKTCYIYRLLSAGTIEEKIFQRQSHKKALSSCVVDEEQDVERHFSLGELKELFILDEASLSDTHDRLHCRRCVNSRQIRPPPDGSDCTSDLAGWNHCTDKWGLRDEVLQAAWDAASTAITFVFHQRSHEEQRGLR

[2] = biological target: T2, DNA repair protein RAD52 homolog (Homo sapiens, UniProt P43351); assay type: functional, biochemical
T2 sequence (P43351 whole entry): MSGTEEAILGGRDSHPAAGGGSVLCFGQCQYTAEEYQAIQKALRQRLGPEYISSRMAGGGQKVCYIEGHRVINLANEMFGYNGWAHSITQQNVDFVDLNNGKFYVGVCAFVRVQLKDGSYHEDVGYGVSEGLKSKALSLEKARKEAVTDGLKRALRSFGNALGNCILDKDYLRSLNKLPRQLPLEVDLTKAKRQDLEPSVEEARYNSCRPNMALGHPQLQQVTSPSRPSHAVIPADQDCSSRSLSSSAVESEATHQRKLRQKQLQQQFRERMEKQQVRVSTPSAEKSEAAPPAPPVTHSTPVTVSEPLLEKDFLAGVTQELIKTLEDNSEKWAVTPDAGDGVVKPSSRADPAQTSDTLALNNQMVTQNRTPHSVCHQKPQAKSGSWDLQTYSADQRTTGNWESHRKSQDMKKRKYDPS

Beta-galactosidase = Beta-galactosidase (Escherichia coli, UniProt Q8VNN2); assay: PubChem AID 485352; assay type: functional
Sequence of Beta-galactosidase (Q8VNN2 whole entry): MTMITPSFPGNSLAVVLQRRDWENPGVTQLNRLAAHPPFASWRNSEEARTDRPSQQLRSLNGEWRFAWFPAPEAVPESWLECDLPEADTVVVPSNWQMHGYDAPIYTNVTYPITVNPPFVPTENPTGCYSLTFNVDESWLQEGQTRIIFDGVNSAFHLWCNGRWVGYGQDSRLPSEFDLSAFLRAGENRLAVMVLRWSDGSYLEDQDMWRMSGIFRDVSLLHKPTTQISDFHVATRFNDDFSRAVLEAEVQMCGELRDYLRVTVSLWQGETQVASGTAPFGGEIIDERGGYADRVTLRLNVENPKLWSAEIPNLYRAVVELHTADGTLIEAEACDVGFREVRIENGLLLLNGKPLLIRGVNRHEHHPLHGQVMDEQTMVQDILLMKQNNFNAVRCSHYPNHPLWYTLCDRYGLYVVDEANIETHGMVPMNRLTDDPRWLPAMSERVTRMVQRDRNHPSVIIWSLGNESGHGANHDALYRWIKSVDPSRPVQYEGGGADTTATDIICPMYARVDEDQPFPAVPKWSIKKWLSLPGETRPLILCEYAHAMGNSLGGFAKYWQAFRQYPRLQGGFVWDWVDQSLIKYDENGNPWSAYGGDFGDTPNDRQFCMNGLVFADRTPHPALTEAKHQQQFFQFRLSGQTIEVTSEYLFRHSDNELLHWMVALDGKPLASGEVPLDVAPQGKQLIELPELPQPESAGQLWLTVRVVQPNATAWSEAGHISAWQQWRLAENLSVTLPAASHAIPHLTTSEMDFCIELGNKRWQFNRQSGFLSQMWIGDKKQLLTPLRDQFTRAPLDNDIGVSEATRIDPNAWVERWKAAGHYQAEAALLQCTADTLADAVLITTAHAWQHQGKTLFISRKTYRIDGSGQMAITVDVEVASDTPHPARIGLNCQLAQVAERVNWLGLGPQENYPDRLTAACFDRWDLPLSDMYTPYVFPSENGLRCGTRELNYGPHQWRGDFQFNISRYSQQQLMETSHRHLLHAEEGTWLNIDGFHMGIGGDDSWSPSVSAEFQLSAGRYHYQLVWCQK

[3] = biological target: T3, Type-1 angiotensin II receptor (Homo sapiens, UniProt P30556); assay: AT1 receptor antagonists, dose response, selectivity assay for APJ receptor antagonist project, cell-based, uHTS hits (AID 463214); assay type: functional;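 note: antagonist potency against angiotensin II stimulated AT1 response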
T3 sequence (P30556 whole entry): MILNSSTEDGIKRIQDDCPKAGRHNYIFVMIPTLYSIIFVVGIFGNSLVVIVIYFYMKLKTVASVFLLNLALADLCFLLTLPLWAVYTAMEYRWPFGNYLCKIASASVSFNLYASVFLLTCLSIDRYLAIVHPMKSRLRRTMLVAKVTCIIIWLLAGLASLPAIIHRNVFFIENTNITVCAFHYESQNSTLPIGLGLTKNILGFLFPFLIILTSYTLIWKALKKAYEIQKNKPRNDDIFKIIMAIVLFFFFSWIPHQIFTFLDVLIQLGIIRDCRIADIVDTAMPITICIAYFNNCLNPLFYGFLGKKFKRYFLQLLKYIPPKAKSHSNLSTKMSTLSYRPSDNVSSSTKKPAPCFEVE

[4] = inhibitors of intracellular T. cruzi replication, confirmation, NIH3T3 host cells, beta-gal luminescence (AID 2044); assay type: functional, cell-based;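 note: intracellular parasites grown in NIH/3T3 mouse fibroblasts as host cells; luminescent beta-galactosidase reporter signal from transgenic T. cruzi replicating inside host cells; inhibitors lower the luminescence signal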
[5] = cytotoxicity toward NIH3T3 fibroblasts, dose response, counter-screen, cell-based, ATP luminescence, mouse fibroblasts (AID 2010); assay type: functional;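 note: cells exposed to compound for about 90 hours before reading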
[6] = biological target: Nuclear receptor subfamily 5 group A member 2 (Homo sapiens, UniProt O00482); assay type: functional, cell-based;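 note: HEK293T cells transfected with LRH-1 and a StAR promoter luciferase reporter; potency for inhibitors that lower LRH-1 driven reporter light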
Sequence of Nuclear receptor subfamily 5 group A member 2 (O00482 whole entry): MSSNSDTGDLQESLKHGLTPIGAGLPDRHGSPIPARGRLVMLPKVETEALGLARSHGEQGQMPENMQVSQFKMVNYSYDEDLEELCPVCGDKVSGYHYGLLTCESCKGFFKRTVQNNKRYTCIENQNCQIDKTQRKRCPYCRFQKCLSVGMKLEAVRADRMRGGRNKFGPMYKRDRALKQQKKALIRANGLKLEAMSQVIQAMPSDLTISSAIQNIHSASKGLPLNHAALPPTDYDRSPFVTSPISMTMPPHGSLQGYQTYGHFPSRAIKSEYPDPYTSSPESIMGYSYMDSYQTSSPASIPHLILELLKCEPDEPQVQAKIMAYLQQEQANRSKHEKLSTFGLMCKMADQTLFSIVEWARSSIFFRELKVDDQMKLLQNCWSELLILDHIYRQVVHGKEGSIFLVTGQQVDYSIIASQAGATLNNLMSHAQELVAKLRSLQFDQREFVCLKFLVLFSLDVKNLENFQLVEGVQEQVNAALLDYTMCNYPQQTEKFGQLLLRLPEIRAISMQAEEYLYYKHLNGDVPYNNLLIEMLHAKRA

Steroidogenic factor 1 = Steroidogenic factor 1 (Homo sapiens, UniProt Q13285); assay: Counterscreen for inverse agonists of the liver receptor homolog-1 (LRH-1; NR5A2): Luminescence-based cell-based high throughput dose response assay to identify inverse agonists of the Steroidogenic Factor 1 Nuclear Receptor (SF1; NR5A1).; assay type: functional
Sequence of Steroidogenic factor 1 (Q13285 whole entry): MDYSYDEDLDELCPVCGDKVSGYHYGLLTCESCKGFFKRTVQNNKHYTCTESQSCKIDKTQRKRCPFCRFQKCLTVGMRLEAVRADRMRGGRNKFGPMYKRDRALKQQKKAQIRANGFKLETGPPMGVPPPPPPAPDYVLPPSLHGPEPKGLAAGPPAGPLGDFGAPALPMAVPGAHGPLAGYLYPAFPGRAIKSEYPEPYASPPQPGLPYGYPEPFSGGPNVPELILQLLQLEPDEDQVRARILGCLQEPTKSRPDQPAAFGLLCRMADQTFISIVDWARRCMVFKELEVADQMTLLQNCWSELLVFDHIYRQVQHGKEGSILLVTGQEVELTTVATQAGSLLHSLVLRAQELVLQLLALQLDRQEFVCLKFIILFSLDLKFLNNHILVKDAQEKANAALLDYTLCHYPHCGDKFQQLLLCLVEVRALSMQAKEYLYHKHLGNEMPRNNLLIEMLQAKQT

[7] = StAR promoter reporter inhibition counter-screen, dose response, counter-screen for LRH-1 inverse agonist project, cell-based, luminescence, luciferase reporter (AID 651969); assay type: functional
[8] = system: Streptococcus sp. 'group A'; assay: growth inhibition of control SK(-) GAS strain, dose response, counter-screen for streptokinase expression inhibitor project, luminescence, kanamycin, BacTiterGlo, confirmation (AID 1900); assay type: functional, organism-based
Streptokinase A = biological target: T4, Streptokinase A (Streptococcus pyogenes serotype M1, UniProt P10520); assay: S. pyogenes streptokinase expression inhibitors, potency, dose response, plasminogen activation absorbance, OD405 (AID 1914); assay type: functional, Streptococcus pyogenes M1 GAS;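 note: secreted streptokinase activity via plasminogen activation per viability signal from cell pellet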
T4 sequence (P10520 whole entry): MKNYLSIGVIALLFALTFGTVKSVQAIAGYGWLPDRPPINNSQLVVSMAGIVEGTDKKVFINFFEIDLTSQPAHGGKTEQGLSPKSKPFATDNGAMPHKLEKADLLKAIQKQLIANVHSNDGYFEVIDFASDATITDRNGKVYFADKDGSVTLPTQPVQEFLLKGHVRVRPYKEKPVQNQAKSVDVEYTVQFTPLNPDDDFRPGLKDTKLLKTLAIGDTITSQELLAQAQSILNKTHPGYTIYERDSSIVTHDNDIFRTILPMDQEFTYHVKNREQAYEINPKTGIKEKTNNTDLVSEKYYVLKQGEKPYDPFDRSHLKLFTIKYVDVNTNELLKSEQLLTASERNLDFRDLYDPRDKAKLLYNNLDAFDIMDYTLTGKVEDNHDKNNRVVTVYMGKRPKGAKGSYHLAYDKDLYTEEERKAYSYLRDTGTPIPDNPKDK

Streptococcus = assay: Group A Streptococcus viability loss, dose response, counter-screen for streptokinase expression inhibitor project, luminescence, BacTiterGlo (AID 1915); assay type: functional, organism-based;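 note: potency for reduction of bacterial viability or growth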
[9] = biological target: Heat shock protein HSP 90-alpha (Homo sapiens, UniProt P07900); assay type: functional, organism-based
[10] = THP-1 cell cytotoxicity, dose response, cytotoxicity control for non-replicating M. tuberculosis project (AID 489025); assay type: functional
[11] = Vero E6 cell cytotoxicity, dose response, cytotoxicity control for non-replicating M. tuberculosis project, secondary assay (AID 492998); assay type: functional, VeroE6; details: Vero C1008
cells = assay type: functional
[12] = biological target: T5, Short transient receptor potential channel 4 (Mus musculus, UniProt Q9QUQ5); assay: mouse TRPC4 channel inhibitors, dose response, cell-based, HEK293 TRPC4/mu-opioid, Fluo-4 calcium (AID 434942); assay type: functional;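 note: potency of inhibitors blocking the TRPC4 calcium response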
T5 sequence (Q9QUQ5 whole entry): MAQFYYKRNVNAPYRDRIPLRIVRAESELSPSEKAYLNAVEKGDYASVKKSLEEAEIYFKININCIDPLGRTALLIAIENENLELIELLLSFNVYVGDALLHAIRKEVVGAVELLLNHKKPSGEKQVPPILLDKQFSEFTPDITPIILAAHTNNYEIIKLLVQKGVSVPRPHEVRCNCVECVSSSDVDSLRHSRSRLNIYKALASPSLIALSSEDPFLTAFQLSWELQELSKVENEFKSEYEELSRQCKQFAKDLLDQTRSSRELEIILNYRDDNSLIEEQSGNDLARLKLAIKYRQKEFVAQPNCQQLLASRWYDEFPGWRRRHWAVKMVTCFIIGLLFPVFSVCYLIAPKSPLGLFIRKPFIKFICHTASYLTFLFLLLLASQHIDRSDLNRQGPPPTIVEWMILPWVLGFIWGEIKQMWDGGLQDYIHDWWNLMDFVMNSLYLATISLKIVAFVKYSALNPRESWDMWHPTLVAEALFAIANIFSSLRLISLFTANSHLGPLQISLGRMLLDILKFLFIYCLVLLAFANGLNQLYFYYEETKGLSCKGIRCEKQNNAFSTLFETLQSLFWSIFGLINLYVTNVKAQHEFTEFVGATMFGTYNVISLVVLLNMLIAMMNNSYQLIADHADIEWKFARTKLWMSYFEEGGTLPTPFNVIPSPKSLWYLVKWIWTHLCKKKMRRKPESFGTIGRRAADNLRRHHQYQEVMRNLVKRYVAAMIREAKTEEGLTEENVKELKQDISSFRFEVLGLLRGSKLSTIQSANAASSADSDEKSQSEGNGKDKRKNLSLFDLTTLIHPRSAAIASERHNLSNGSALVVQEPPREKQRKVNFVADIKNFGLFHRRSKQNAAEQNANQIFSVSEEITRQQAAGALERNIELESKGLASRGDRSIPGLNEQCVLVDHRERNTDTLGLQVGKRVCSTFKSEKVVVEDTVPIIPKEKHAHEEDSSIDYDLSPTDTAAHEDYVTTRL

Protein skinhead-1 = biological target: T6, Protein skinhead-1 (Caenorhabditis elegans, UniProt P34707); assay type: functional
T6 sequence (P34707 whole entry): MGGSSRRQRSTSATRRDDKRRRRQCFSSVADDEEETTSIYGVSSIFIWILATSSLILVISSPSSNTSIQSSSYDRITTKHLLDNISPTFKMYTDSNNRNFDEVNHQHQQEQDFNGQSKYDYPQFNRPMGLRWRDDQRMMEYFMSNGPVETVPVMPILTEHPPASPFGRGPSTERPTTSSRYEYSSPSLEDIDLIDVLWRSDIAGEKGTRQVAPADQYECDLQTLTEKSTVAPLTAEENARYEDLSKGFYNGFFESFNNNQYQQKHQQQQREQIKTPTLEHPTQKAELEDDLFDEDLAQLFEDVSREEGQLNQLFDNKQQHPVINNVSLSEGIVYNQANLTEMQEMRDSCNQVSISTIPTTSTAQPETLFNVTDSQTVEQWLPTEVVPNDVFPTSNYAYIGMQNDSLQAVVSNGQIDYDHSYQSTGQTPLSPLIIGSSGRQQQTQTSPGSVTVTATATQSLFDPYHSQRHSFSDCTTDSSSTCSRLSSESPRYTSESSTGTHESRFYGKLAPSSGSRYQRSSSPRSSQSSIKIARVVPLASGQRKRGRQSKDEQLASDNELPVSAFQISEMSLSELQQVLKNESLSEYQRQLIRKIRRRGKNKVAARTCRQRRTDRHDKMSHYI

Cytochrome P450 2C19 = Cytochrome P450 2C19 (Homo sapiens, UniProt P33261); assay: Cytochrome panel assay with activity outcomes. Panel member name: p450-cyp2c19 Compounds with AC50 equal or less than 10 uM are considered active; assay type: functional; details: read-out: AC50
Sequence of Cytochrome P450 2C19 (P33261 whole entry): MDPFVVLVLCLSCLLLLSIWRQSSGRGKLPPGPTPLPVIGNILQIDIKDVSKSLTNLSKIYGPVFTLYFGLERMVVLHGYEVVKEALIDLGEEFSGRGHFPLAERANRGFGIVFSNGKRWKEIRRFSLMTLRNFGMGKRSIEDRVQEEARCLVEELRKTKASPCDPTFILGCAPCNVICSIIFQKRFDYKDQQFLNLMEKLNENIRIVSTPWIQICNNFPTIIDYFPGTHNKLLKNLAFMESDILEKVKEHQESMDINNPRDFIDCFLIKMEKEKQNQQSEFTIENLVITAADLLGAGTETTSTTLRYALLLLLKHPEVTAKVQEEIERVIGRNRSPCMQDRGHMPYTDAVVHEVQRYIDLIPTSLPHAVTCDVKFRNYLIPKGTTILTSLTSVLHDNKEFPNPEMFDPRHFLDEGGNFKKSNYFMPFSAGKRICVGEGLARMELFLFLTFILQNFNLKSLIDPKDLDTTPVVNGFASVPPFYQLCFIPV

Cytochrome P450 2D6 = Cytochrome P450 2D6 (Homo sapiens, UniProt P10635);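 note: CYP2D6 member of a cytochrome P450 panel assay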
Sequence of Cytochrome P450 2D6 (P10635 whole entry): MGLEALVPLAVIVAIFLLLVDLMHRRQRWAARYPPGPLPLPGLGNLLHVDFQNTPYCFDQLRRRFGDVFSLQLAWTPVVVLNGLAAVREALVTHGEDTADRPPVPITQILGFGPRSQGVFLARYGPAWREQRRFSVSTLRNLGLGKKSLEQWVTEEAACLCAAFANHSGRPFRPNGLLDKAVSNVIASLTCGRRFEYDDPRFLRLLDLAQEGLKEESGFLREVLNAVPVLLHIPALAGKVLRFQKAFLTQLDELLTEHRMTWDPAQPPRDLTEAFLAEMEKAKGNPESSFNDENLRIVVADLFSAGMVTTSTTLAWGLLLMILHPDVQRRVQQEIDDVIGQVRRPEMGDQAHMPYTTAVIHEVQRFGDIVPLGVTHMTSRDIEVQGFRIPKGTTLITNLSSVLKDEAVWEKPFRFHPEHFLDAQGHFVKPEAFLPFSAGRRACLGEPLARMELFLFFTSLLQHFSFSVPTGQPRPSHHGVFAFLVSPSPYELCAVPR

[13] = biological target: Glucose-6-phosphate 1-dehydrogenase (Homo sapiens, UniProt P11413); assay: human G6PD enzyme inhibitors, dose response, selectivity assay for P. falciparum G6PD inhibitor project, biochemical, fluorescence (AID 504792); assay type: functional
Sequence of Glucose-6-phosphate 1-dehydrogenase (P11413 whole entry): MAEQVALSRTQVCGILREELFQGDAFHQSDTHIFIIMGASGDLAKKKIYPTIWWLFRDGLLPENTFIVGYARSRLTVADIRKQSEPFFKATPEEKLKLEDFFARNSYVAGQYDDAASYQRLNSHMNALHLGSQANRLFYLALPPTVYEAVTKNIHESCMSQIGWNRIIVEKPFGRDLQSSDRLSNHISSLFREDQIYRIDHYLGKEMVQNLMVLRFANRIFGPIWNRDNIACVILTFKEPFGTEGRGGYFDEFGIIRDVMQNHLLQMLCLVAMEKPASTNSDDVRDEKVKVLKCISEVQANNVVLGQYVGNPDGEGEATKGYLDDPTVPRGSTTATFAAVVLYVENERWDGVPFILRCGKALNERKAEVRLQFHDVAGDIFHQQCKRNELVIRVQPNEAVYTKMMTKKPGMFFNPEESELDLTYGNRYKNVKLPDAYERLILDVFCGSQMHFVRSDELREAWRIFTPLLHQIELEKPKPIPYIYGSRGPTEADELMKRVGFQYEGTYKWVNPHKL

Genome polyprotein = Genome polyprotein (dengue virus type 2, UniProt P29990); assay: Dengue-2 NS5 methyltransferase inhibitors, primary screen, biochemical, confirmation dose response (AID 588689); assay type: functional
Sequence of Genome polyprotein (P29990 2492-3391 limits assumed): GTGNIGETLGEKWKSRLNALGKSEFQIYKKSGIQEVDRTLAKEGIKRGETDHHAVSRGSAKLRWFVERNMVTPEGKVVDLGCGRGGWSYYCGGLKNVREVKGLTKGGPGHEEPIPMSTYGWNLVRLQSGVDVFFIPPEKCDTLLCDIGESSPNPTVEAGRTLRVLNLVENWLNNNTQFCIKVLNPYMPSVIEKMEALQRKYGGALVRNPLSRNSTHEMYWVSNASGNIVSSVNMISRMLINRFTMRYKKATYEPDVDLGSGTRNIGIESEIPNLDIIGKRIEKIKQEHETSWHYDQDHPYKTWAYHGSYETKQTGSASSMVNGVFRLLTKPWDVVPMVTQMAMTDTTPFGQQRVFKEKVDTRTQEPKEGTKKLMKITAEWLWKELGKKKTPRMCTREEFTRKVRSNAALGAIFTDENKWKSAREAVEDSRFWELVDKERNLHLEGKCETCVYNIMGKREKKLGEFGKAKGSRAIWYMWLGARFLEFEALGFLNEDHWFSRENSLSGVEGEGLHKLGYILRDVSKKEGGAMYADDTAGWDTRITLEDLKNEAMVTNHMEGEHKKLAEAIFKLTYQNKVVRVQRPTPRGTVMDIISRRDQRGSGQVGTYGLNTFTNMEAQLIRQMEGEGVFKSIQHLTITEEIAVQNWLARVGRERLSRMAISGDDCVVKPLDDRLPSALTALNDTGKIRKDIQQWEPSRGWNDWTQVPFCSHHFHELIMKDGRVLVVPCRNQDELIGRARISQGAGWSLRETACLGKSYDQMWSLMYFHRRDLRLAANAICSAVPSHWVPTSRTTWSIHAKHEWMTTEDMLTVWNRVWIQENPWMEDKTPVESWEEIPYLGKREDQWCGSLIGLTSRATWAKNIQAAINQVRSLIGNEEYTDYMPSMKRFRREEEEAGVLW

[14] = AlphaScreen signal interference compounds, dose response, artefact control for ARNT-TACC3 interaction inhibitor project, biochemical, luminescence, cherry-pick (AID 651705); assay type: functional;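 note: AlphaScreen bead proximity signal that flags compounds interfering with the detection technology; potency reflects signal decrease which marks the compound as an assay artifact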

Cc1c(C)n(CCN(C)C)c2ccc(C(=O)OCCN(C)C)cc12
AC50 [1]: 8.41 µM (active)
AC50 [2]: 1.31 µM (active)

CC(C)c1nc(C#N)c(NN)o1
EC50 (Beta-galactosidase): > 40 µM (inactive)
IC50 [3]: 25.3 µM (not active)

COc1ccc(NS(=O)(=O)c2ccc(OCC(=O)N3CCN(C)CC3)cc2)cc1Cl
EC50 [4]: 0.524 µM (active)
EC50 [5]: > 30 µM (not active)
IC50 [6]: 9.48 µM (active)
IC50 (Steroidogenic factor 1): 5.92 µM (active)
IC50 [7]: 35.9 µM (inactive)

O=C(/C=C/c1cccc(C(F)(F)F)c1)Nc1cccc(C(F)(F)F)c1
EC50 [8]: 4.38 µM (active)
EC50 (Streptokinase A): > 50 µM (not active)
EC50 (Streptococcus): 4.93 µM (active)
AC50 [9]: 4.19 µM (active)

C=CCc1ccc(OCC(O)CN2CCN(Cc3ccc(Cl)cc3)CC2)c(OC)c1 (configuration not stated)
CC50 [10]: > 40 µM (active)
CC50 [11]: > 20 µM (active)
IC50 (cells): 23.3 µM (active)

O=C(c1ccco1)N1CCN(C/C=C/c2ccccc2)CC1
EC50 [12]: 0.596 µM (active)
IC50 (Protein skinhead-1): > 100 µM (inactive)

Cc1cc(C)c2c(N=NN(C)C)[nH]nc2n1
AC50 (Cytochrome P450 2C19): 39.8 µM (inconclusive)
AC50 [9]: 3.96 µM (active)
AC50 (Cytochrome P450 2D6): 14.1 µM (inconclusive)

COc1ccc(NC(=O)CN2C(=O)NC3(CCCC3)C2=O)cc1
IC50 [6]: 35.9 µM (inactive)
IC50 (Steroidogenic factor 1): 35.9 µM (inactive)
IC50 [7]: 35.9 µM (inactive)

CCN(CC)C1CC(=O)N(c2ccc(Br)cc2)C1=O (configuration not stated)
AC50 [9]: 4.04 µM (active)

Oc1cc(CNCc2ccccc2)c(O)cc1CNCc1ccccc1
IC50 [13]: > 80 µM (inactive)
IC50 (Genome polyprotein): 37.4 µM (active)

C/C=C/c1ccc([C@@H]2[C@H](CO)N(Cc3ccccn3)[C@H]2CNC(C)=O)cc1
AC50 [14]: 83.2 µM (active)

COc1cc(/C=N/NC(N)=S)ccc1OCC(=O)Nc1ccc(C)cc1
IC50 [6]: 35.9 µM (inactive)
IC50 (Steroidogenic factor 1): 8.04 µM (active)
IC50 [7]: 35.9 µM (inactive)

COc1cccc(/C=N/NC(=O)c2c(C)nc3ccc(Br)cn23)c1
IC50 [13]: 36 µM (inactive)

— ChEMBL document CHEMBL1201862, “PubChem BioAssay data set” (2004)
